Data published in patent publication US6818638B2, “Melvinolin derivatives” (Novartis AG, priority 1999, dated 2004).

Assays:
[1] = molecular target: T1, human LFA-1 / human ICAM-1 (Homo sapiens, UniProt P20701); experiment: Cell free assay: binding of soluble human ICAM-1 to immobilized human LFA-1; conditions: cell free assay Ai); read-out: IC50, inhibition of adhesion of LFA-1 to ICAM-1
T1 construct: endogenous in cells; ICAM-1-Cκ: made in house in the baculovirus system
Procedure: The assay measures the binding of soluble human ICAM-1 to Immobilized human LFA-1 is purified from JY cells, a human lymphoblastoid B cell-line, by immunoaffinity chromatography as described by Dustin et al. (J. Immunol. 148, 2654-2663, 1992). ICAM-1 mouse Cκ fusion protein (ICAM-1) is produced using the baculovirus system as described by Weitz-Schmidt et al. (Anal. Biochem.238,184-190, 1996).
Purified LFA-1 is diluted 1:20 in phosphate buffered saline (PBS) containing 2 mM MgCl2, pH 7.4 and coated onto microtitre plates (Nunc) at 37° C. for 3h. Plates are blocked with 1% heat-treated BSA in PBS for 2 hours at 37° C. followed by a washing step using PBS, 2 mM MgCl2, 1% fetal calf serum, pH 7.4 (assay buffer). Compounds dissolved at 10 mM in DMSO are diluted in assay buffer and added to the plates. Biotinylated recombinant ICAM-1 in assay buffer (6 μg/ml) is added and allowed to bind at 37° C. for one hour. After incubation, wells are washed with assay buffer. Streptavidin-peroxidase diluted 1:5000 in assay buffer is added and incubated for 45 min at 37° C. Plates are then washed with assay buffer and 2.2′-azino-bis(3-ethylbenzothiazoline-6 sulfonic acid) diammonium salt substrate solution is added to each well. The reaction is stopped after 20 min and bound ICAM-1 is determined by measuring the optical density at 405 nm in a microplate reader.
In this assay, compounds of formula I inhibit adhesion of LFA-1 to ICAM-1 with an IC50≦30 μM, preferably 0.05 to 30 μM.

[2] = system: Peripheral blood mononuclear cells (PBMC); experiment: Human Mixed Lymphocyte Reaction (MLR); assay type: cell-based; conditions: 2-way reactions, six days, 3H-thymidine, read-out: IC50, 50% inhibition of cell proliferation in MLR
Procedure: Peripheral blood mononuclear cells (PBMC) are isolated from human buffy coats. In each experiment, PBMC from three different donors (A, B, and C) are set up in three individual 2-way reactions (A-B, A-C, B-C). Cells are cocultured for six days and proliferation is determined by pulsing the cells with ^3H-thymidine. The concentration of compounds of formula I which results in 50% inhibition of cell proliferation (IC50) is calculated.

[3] = system: thioglycollate induced neutrophil migration; experiment: Murine Thioglycollate Induced Peritonitis; assay type: in vivo, mice; conditions: Mus musculus, Neutrophil, po; p.o.; neutrophils in peritoneal lavage after 4 hours; read-out: ED50 in test Bi)
[4] = system: oxazolone-induced allergic contact dermatitis; experiment: Allergic Contact Dermatitis (ACD), oxazolone-sensitized mice; assay type: in vivo
Procedure: Groups of oxazolone-sensitized mice are challenged with 10 μl of 0.2 or 2.0% oxazolone on the inner surface of the right to eliciate ACD. The low concentration of oxazolone is used for testing compounds on systemic activity whereas the high concentration is applied for topical testing. The unchallenged left ears serve as normal controls and dermatitis is evaluated from the individual differences in pinnal weight, which is taken as a measure of increase in inflammatory swelling 24 h after the challenge. Dermatitis is evaluated in test- and for comparison in control groups. The test groups are treated with the test compounds either orally (twice, 2 h and immediately before challenge), subcutaneously (immediately before challenge) or topically (30 min after challenge at the site of elicitation of the ACD); the controls are treated similarly with the vehicles alone. For oral and subcutaneous administration the compounds are administered in an oil in water emulsion, for topical administration the compounds are prepared in a mixture of ethanol, acetone and dimethylacetamide. The data of the test- and the vehicle-treated control groups are statistically analysed by ANOVA followed by Dunnet T-test (normal distribution or data) or by H and U-test, respectively. […]

T1 sequence (P20701 26-1170): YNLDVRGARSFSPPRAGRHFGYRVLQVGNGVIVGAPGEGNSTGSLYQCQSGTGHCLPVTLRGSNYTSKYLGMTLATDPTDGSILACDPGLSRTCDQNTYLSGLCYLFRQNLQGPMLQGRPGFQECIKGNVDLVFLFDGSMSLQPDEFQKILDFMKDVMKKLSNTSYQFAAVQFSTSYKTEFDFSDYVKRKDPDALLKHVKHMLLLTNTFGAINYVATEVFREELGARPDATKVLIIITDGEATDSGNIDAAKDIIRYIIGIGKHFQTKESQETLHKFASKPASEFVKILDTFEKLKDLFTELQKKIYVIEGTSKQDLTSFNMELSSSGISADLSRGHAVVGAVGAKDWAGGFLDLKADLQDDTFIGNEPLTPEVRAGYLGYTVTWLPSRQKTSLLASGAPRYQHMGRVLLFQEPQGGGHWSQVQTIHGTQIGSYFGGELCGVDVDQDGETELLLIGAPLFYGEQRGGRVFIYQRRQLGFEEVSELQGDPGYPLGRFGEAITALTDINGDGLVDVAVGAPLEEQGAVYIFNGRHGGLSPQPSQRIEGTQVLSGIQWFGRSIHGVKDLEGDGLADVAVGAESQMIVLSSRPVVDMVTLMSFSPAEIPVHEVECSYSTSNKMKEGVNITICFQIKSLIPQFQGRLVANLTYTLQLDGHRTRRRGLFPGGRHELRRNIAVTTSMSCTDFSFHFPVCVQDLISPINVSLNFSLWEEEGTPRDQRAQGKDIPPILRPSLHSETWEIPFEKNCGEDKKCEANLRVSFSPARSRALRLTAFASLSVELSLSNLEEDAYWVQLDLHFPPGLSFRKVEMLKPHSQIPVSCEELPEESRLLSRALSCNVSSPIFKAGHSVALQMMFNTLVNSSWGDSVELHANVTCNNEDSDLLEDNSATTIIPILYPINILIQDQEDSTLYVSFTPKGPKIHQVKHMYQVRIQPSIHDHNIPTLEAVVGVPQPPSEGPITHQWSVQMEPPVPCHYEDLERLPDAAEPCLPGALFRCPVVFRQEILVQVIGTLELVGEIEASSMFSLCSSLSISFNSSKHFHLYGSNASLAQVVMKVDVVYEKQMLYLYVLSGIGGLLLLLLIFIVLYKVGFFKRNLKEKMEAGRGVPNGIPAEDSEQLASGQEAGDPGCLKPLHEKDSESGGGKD
T1 sequence (P05107 23-769 partner): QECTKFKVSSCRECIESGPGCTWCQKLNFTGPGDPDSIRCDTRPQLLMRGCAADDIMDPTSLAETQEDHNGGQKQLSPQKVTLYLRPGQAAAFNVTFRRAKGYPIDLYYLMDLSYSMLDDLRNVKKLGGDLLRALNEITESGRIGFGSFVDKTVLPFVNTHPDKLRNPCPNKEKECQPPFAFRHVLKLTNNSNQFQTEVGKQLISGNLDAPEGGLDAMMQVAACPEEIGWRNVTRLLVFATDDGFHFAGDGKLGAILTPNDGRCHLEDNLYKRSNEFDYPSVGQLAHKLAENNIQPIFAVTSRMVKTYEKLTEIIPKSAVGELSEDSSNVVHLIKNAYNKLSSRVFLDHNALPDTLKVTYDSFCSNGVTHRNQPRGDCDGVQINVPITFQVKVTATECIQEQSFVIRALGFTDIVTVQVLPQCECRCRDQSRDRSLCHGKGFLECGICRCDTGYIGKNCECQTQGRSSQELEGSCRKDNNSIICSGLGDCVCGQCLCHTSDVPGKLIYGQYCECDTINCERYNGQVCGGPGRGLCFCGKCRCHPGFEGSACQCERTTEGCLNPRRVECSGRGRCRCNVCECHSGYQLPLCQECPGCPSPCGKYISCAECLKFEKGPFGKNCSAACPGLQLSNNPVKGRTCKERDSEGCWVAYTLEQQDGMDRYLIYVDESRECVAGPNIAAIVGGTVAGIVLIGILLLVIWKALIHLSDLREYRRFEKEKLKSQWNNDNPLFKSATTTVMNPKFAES

Row | IC50 [1] [nM] | SMILES | IC50 [2] [nM] | ED50 [3] [µg/kg] | inhibiting effect in ACD ([4]; p.o. at a dose of 2×3 mg/kg) [%] | inhibition of inflammatory swelling in ACD ([4]; 2x 1 mg/kg p.o.) [%]
1 | 50 | CC[C@H](C)C(=O)O[C@H]1C[C@@H](C)C=C2C=C[C@H](C)[C@H](CC[C@@H]3C[C@H](CC(=O)NC)N(Cc4ccc(O)c(OC)c4)C(=O)O3)[C@H]21 [Ex. 2] | 200 | 0.1 | 41 | 
2 | 190 | CC[C@H](C)C(=O)O[C@H]1C[C@@H](C)C=C2C=C[C@H](C)[C@H](CC[C@H]3C[C@@H](O)CC(=O)N3Cc3ccc4c(CO)c(OC)ccc4c3)[C@H]21 [Ex. 34, (S)2-Methyl-butyric acid (1S,3R,7S,8S,8aR)-8-{2-[(2S,4R)4-hydroxy-1-(5-hydroxymethyl-6-methoxy-naphthalen-2-ylmethyl)-6-oxo-piperidin-2-yl]-ethyl}-3,7-dimethyl-1,2,3,7,8,8a-hexahydro-naphthalen-1-yl ester] |  |  |  | 41
3 | 790 | CC[C@H](C)C(=O)O[C@H]1C[C@@H](C)C[C@@H]2CC[C@H](C)[C@H](CC[C@@H](O)C[C@@H](O)CC(=O)NCc3ccc(OC)c(OC)c3)[C@H]21 [compound 28, (S)-2-Methyl-butyric acid (S)-(3S,4aS,7S,8S,8aS)-8-[(3R,5)6-(3,4-dimethoxy-benzylcarbamoyl)-3,5-dihydroxy-hexyl]-3,7-dimethyl-decahydro-naphthalen-1-yl ester] |  |  |  | 
